Measured values published in patent US7790461B2, “Nano-emulsion technology for drug elution” (Medtronic MiniMed, Inc., priority 2007, dated 2010).

Assays:
[1] = 0.022 mg/mL
Description: To evaluate buffers with different pH, eleven milligrams of Dexamethasone Acetate was dissolved in 500 mL of media (different pH adjusted buffers).

[2] = Stability of drug in elution media; type: physicochemical; conditions: length of the study
Description: The mobile phase preparation and choice of the column were instructed in the Dexamethasone Acetate monograph USP29-NF24. The mobile phase A consisted of pH 4.1 formate buffer and acetonitrile (3:2), and mobile phase B consisted of pH 4.1 formate buffer and acetonitrile (9:1). The chromatographic column (USP L11) used was an Agilent Zorbax SB-Phenyl, 4.6 mm×250 mm, 5 μm. A gradient was used with 1 mL/min flow rate. The run time was about 70 minutes. […] The injection volume for standard and samples was 100 μL.

CC(=O)OCC(=O)[C@@]1(O)[C@H](C)C[C@H]2[C@@H]3CCC4=CC(=O)C=C[C@]4(C)[C@@]3(F)[C@@H](O)C[C@@]21C [Dexamethasone Acetate]
stability with respect to pH (order) [1]: pH 3>pH 5≅acetate pH 5.7>water>pH 7>pH 9 | stability in the media [2]: stable
